Results taken from ChEMBL document CHEMBL3046544, “Inhibitory Activity of N-Substituted-2-piperidones with a 1, 4-Benzodioxan Ring on Germination of Barnyardgrass” (J Pestic Sci, 2001).

Legend:
Format in all cases: functional
Conditions in all cases: 120 h
[1] = tested on: Echinochloa esculenta; assay: Herbicidal activity against Echinochloa esculenta assessed as inhibition of seed germination at 1000 nM after 5 days relative to control
[2] = tested on: Echinochloa esculenta; assay: Herbicidal activity against Echinochloa esculenta assessed as inhibition of seed germination at 100 nM after 5 days relative to control
[3] = tested on: Echinochloa esculenta; assay: Herbicidal activity against Echinochloa esculenta assessed as inhibition of seed germination at 10 nM after 5 days relative to control
[4] = tested on: Echinochloa esculenta; assay: Herbicidal activity against Echinochloa esculenta assessed as inhibition of seed germination at 1 nM after 5 days relative to control

SMILES | inhibition at 1 µM [1] | inhibition at 0.1 µM [2] | inhibition at 0.01 µM [3] | inhibition at 0.001 µM [4]
O=C1C(C(O)c2ccc3c(c2)OCC(c2ccccc2)O3)CCCN1Cc1ccccc1 (mixture of isomers) | < 49% | < 49% | < 49% | < 49%
O=C1C(C(O)c2ccc3ccccc3n2)CCCN1Cc1ccccc1 (mixture of isomers) | > 90% | < 49% | < 49% | < 49%
COc1ccc(C(O)C2CCCN(Cc3ccccc3)C2=O)cc1 (mixture of isomers) | > 90% | < 49% | < 49% | < 49%
O=C1C(C(O)c2cccc(C(F)(F)F)c2)CCCN1Cc1ccccc1 (stereo unspecified) | 50% | 50% | < 49% | < 49%
O=C1C(C(O)c2cccc3ccccc23)CCCN1Cc1ccccc1 (mixture of isomers) | < 49% | < 49% | < 49% | < 49%
O=C1C(C(O)c2ccccc2[N+](=O)[O-])CCCN1Cc1ccccc1 (mixture of isomers) | 50% | < 49% | < 49% | < 49%
COCC1COc2cc(C(O)C3CCCN(Cc4ccccc4)C3=O)ccc2O1 (mixture of isomers) | > 90% | > 90% | < 49% | < 49%
O=C1C(C(O)c2ccc3ccccc3c2)CCCN1Cc1ccccc1 (mixture of isomers) | < 49% | < 49% | < 49% | < 49%
CCCCCCC(O)C1CCCN(Cc2ccccc2)C1=O (stereo unspecified) | > 90% | 50% | < 49% | < 49%
O=C1C(C(O)c2ccc(Oc3ccccc3)cc2)CCCN1Cc1ccccc1 (mixture of isomers) | < 49% | < 49% | < 49% | < 49%
O=C1C(C(O)c2ccccc2Cl)CCCN1Cc1ccccc1 (mixture of isomers) | > 90% | < 49% | < 49% | < 49%
COc1cc2c(cc1C(O)C1CCCN(Cc3ccccc3)C1=O)OCCO2 (mixture of isomers) | 50% | 50% | < 49% | < 49%
O=C1C(C(O)c2ccncc2)CCCN1Cc1ccccc1 (mixture of isomers) | < 49% | < 49% | < 49% | < 49%
O=C1C(C(O)c2ccnc3ccccc23)CCCN1Cc1ccccc1 (mixture of isomers) | > 90% | < 49% | < 49% | < 49%
COc1ccc(C(O)C2CCCN(Cc3ccccc3)C2=O)cc1OC (mixture of isomers) | > 90% | 50% | < 49% | < 49%
COc1ccc(C(O)C2CCCN(Cc3ccccc3)C2=O)c(OC)c1 (mixture of isomers) | < 49% | < 49% | < 49% | < 49%
O=C1C(C(O)c2ccccc2C(F)(F)F)CCCN1Cc1ccccc1 (mixture of isomers) | 50% | < 49% | < 49% | < 49%
O=C1C(C(O)c2ccc3c(c2)OCCO3)CCN1C/C=C/c1ccccc1 (mixture of isomers) | > 90% | < 49% | < 49% | < 49%
O=C1C(C(O)c2cccnc2)CCCN1Cc1ccccc1 (mixture of isomers) | 50% | < 49% | < 49% | < 49%
